Source: patent publication US20100196275A1, “Methods and products for neutralizing the harmful effects of combustion products” (priority 2006, published 2010)
“Also recorded” adds a separate entry of the source.

Tests used:
[1] = system: nucleotide excision repair (NER); experiment: In vitro DNA damage-specific repair synthesis assay; type: biochemical, human
Method: (§1) Determination of the Effect of Acr Treatment on DNA Repair. Host cell reactivation (HCR) and in vitro DNA repair synthesis assays were performed as previously described to determine the effects of Acr treatment on DNA repair in human cells (Feng, Z., Hu, W., & Tang, M.-s. (2004) Proc. Nat. Acad. Sci. 101, 8598-8602; Feng, Z., Hu, W., Marnett, L., & Tang, M.-s. Mutat. Res. in press).

supF gene = experiment: supF shuttle vector pSP189 mutation assay in NHLF; type: cell-based, human; set-up: dose or concentration left out as unconfirmed; conditions: pSP189 modified with Acr, replicated in NHLF
Method: Determination of Mutations Induced by Acr-DNA Adducts. The methods used for mutation detection and for mutational spectrum determination were the same as previously described (Feng, Z., Hu, W., Amin, S., & Tang, M.-s. (2003) Biochemistry 42, 7848-7854). Briefly, shuttle vector pSP189 plasmid DNA was modified with different concentrations of Acr, and transfected into NHLF for replication. Plasmids were recovered 72 h after transfection, and replicated plasmids were then transformed into MB7070 E. coli indicator cells. The supF gene in plasmids isolated from mutant white colonies were then sequenced.

[2] = rats; cited from earlier work
[3] = system: nucleotide excision repair (NER); experiment: Host cell reactivation (HCR) assay; type: cell-based, human; conditions: NHLF treated with Acr for 1 h, BPDE-modified luciferase plasmid
Method: as §1

[4] = system: nucleotide excision repair (NER); conditions: previously found, earlier publications; cited from earlier work

Row | Structure (SMILES) | inhibitory effect, cell lysates directly treated versus whole cells treated ([1]; NHLF) | effect on repair of BPDE-DNA adducts (NER capacity) ([1]; NHLF cell extracts, BPDE-modified pUC18) | G to T transversions among base substitution mutants sequenced (supF gene) | mutation frequency (supF gene) | share of G to T transversions among base substitutions (supF gene) | bladder tumour occurrence [2] | effect on repair of BPDE-DNA adducts (NER capacity) [3] | effect on cellular NER capacity [4]
1 | C=CC=O [Acr, Acrolein] | much more pronounced in cell lysates directly treated with Acr than whole cells treated with Acr | greatly inhibit NER for BPDE-induced DNA damage | 28 out of 55 | 120×10^−4 | more than 50% | greatly enhances urinary bladder papilloma occurrence in rats; also recorded: cause bladder cancer in rats | greatly inhibit NER for BPDE-induced DNA damage | 
2 | O=CCC=O [MDA] |  |  |  |  |  |  |  | greatly reduce cellular nucleotide excision repair (NER) capacity
3 | CCCCCC(O)/C=C/C=O (stereo not drawn) [4-HNE] |  |  |  |  |  |  |  | greatly reduce cellular nucleotide excision repair (NER) capacity
